PubChem BioAssay AID1963436 (Molecular Pharmacology Branch, DTP, NCI, 2024)

Test system: OVCAR-5 complex spheroid (HUVEC/MSC), viability % T/C
Assay: Anticancer human tumor OVCAR-5 cell line growth inhibition [Asc];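 further: spheroids exposed to agents for 7 days before readout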;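 on viability, T/C: 100% = DMSO vehicle-treated wells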
Conditions: for IC50: curve of first compound; for viability, T/C: stronger effect = lower value; active means viability on the fitted dose curve at most 10% of control; inactive means the rest
Summary of the method: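 Tumor cells were grown as multicellular spheroids with stromal HUVEC and mesenchymal stem cells and treated singly or in combination. Concentrations fell in half-log steps from the clinical Cmax, or from 10 microM where none was known.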

[1] = second compound 0.1 µM, first compound 0.00316 µM
[2] = second compound 0.1 µM, first compound 0.01 µM
[3] = second compound 0.1 µM, first compound 0.0316 µM
[4] = second compound 0.1 µM, first compound 0.1 µM
[5] = second compound 0.1 µM, first compound 0.316 µM
[6] = second compound 0.1 µM, first compound 1 µM
[7] = second compound 0.316 µM, first compound 0.00316 µM
[8] = second compound 0.316 µM, first compound 0.01 µM
[9] = second compound 0.316 µM, first compound 0.0316 µM
[10] = second compound 0.316 µM, first compound 0.1 µM
[11] = second compound 0.316 µM, first compound 0.316 µM
[12] = second compound 0.316 µM, first compound 1 µM
[13] = second compound 1 µM, first compound 0.00316 µM
[14] = second compound 1 µM, first compound 0.01 µM
[15] = second compound 1 µM, first compound 0.0316 µM
[16] = second compound 1 µM, first compound 0.1 µM
[17] = second compound 1 µM, first compound 0.316 µM
[18] = second compound 1 µM, first compound 1 µM
[19] = second compound 3.16 µM, first compound 0.00316 µM
[20] = second compound 3.16 µM, first compound 0.01 µM
[21] = second compound 3.16 µM, first compound 0.0316 µM
[22] = second compound 3.16 µM, first compound 0.1 µM
[23] = second compound 3.16 µM, first compound 0.316 µM
[24] = second compound 3.16 µM, first compound 1 µM
[25] = second compound 10 µM, first compound 0.00316 µM
[26] = second compound 10 µM, first compound 0.01 µM
[27] = second compound 10 µM, first compound 0.0316 µM
[28] = second compound 10 µM, first compound 0.1 µM
[29] = second compound 10 µM, first compound 0.316 µM
[30] = second compound 10 µM, first compound 1 µM
[31] = second compound 0.1 µM, first compound 0.000316 µM
[32] = second compound 0.1 µM, first compound 0.001 µM
[33] = second compound 0.316 µM, first compound 0.000316 µM
[34] = second compound 0.316 µM, first compound 0.001 µM
[35] = second compound 1 µM, first compound 0.000316 µM
[36] = second compound 1 µM, first compound 0.001 µM
[37] = second compound 3.16 µM, first compound 0.000316 µM
[38] = second compound 3.16 µM, first compound 0.001 µM
[39] = second compound 10 µM, first compound 0.000316 µM
[40] = second compound 10 µM, first compound 0.001 µM

CCN1CCN(Cc2ccc(Nc3ncc(F)c(-c4cc(F)c5nc(C)n(C(C)C)c5c4)n3)nc2)CC1 + Cc1c(S(C)(=O)=O)c(-c2cc(F)cc(N3CCN(c4ccc(NS(=O)(=O)c5ccc(NC(CCN6CCC(C(=O)OCCCP(=O)(O)O)CC6)CSc6ccccc6)c(S(=O)(=O)C(F)(F)F)c5)cc4)CC3)c2)c(-c2ccc(Cl)cc2)n1C(C)C
inactive: viability, T/C [1] 94.7% | viability, T/C [2] 83.5% | viability, T/C [3] 66% | viability, T/C [4] 61.5% | viability, T/C [5] 69.6% | viability, T/C [6] 56.1% | viability, T/C [7] 79.4% | viability, T/C [8] 74.1% | viability, T/C [9] 68.6% | viability, T/C [10] 56.1% | viability, T/C [11] 61.8% | viability, T/C [12] 57% | viability, T/C [13] 80.1% | viability, T/C [14] 80.4% | viability, T/C [15] 63.5% | viability, T/C [16] 55% | viability, T/C [17] 58.3% | viability, T/C [18] 50.8% | viability, T/C [19] 77% | viability, T/C [20] 72.9% | viability, T/C [21] 63.9% | viability, T/C [22] 48.6% | viability, T/C [23] 58.4% | viability, T/C [24] 47.9% | viability, T/C [25] 107% | viability, T/C [26] 97.7% | viability, T/C [27] 81.5% | viability, T/C [28] 47% | viability, T/C [29] 54.3% | viability, T/C [30] 49.1%
> 1 µM: IC50 (second compound 0.1 µM) | IC50 (second compound 0.316 µM) | IC50 (second compound 1 µM) | IC50 (second compound 3.16 µM) | IC50 (second compound 10 µM)

Cn1ncnc1[C@H]1c2n[nH]c(=O)c3cc(F)cc(c23)N[C@@H]1c1ccc(F)cc1 + Cc1c(S(C)(=O)=O)c(-c2cc(F)cc(N3CCN(c4ccc(NS(=O)(=O)c5ccc(NC(CCN6CCC(C(=O)OCCCP(=O)(O)O)CC6)CSc6ccccc6)c(S(=O)(=O)C(F)(F)F)c5)cc4)CC3)c2)c(-c2ccc(Cl)cc2)n1C(C)C
inactive: viability, T/C [31] 99% | viability, T/C [32] 101% | viability, T/C [1] 100% | viability, T/C [2] 82.9% | viability, T/C [3] 86% | viability, T/C [4] 91.1% | viability, T/C [33] 96.3% | viability, T/C [34] 95% | viability, T/C [7] 97% | viability, T/C [8] 89.7% | viability, T/C [9] 89.1% | viability, T/C [10] 74.2% | viability, T/C [35] 96.7% | viability, T/C [36] 110% | viability, T/C [13] 100% | viability, T/C [14] 91.7% | viability, T/C [15] 76.5% | viability, T/C [16] 89.2% | viability, T/C [37] 88.1% | viability, T/C [38] 90.9% | viability, T/C [19] 91.2% | viability, T/C [20] 70.1% | viability, T/C [21] 87.9% | viability, T/C [22] 76.9% | viability, T/C [39] 117% | viability, T/C [40] 138% | viability, T/C [25] 133% | viability, T/C [26] 110% | viability, T/C [27] 97.9% | viability, T/C [28] 102%
> 0.1 µM: IC50 (second compound 0.1 µM) | IC50 (second compound 0.316 µM) | IC50 (second compound 1 µM) | IC50 (second compound 3.16 µM) | IC50 (second compound 10 µM)

NC(=O)C(=Cn1cnc(-c2cc(C(F)(F)F)cc(C(F)(F)F)c2)n1)c1cncnc1 + Cc1c(S(C)(=O)=O)c(-c2cc(F)cc(N3CCN(c4ccc(NS(=O)(=O)c5ccc(NC(CCN6CCC(C(=O)OCCCP(=O)(O)O)CC6)CSc6ccccc6)c(S(=O)(=O)C(F)(F)F)c5)cc4)CC3)c2)c(-c2ccc(Cl)cc2)n1C(C)C
0.0668 µM: IC50 (second compound 10 µM)
0.106 µM: IC50 (second compound 1 µM)
0.137 µM: IC50 (second compound 0.316 µM)
0.0639 µM: IC50 (second compound 3.16 µM)
inactive: viability, T/C (second compound 0.1 µM, first compound 0.000949 µM) 106% | viability, T/C (second compound 0.1 µM, first compound 0.003 µM) 99.1% | viability, T/C (second compound 0.1 µM, first compound 0.00949 µM) 91.7% | viability, T/C (second compound 0.1 µM, first compound 0.03 µM) 79.6% | viability, T/C (second compound 0.1 µM, first compound 0.0949 µM) 82.2% | viability, T/C (second compound 0.1 µM, first compound 0.3 µM) 34.8% | viability, T/C (second compound 0.316 µM, first compound 0.000949 µM) 100% | viability, T/C (second compound 0.316 µM, first compound 0.003 µM) 96.2% | viability, T/C (second compound 0.316 µM, first compound 0.00949 µM) 93.7% | viability, T/C (second compound 0.316 µM, first compound 0.03 µM) 77.6% | viability, T/C (second compound 0.316 µM, first compound 0.0949 µM) 60.3% | viability, T/C (second compound 0.316 µM, first compound 0.3 µM) 29.3% | viability, T/C (second compound 1 µM, first compound 0.000949 µM) 98.3% | viability, T/C (second compound 1 µM, first compound 0.003 µM) 103% | viability, T/C (second compound 1 µM, first compound 0.00949 µM) 79.7% | viability, T/C (second compound 1 µM, first compound 0.03 µM) 79% | viability, T/C (second compound 1 µM, first compound 0.0949 µM) 53.1% | viability, T/C (second compound 1 µM, first compound 0.3 µM) 19.1% | viability, T/C (second compound 3.16 µM, first compound 0.000949 µM) 97.1% | viability, T/C (second compound 3.16 µM, first compound 0.003 µM) 98.5% | viability, T/C (second compound 3.16 µM, first compound 0.00949 µM) 91.8% | viability, T/C (second compound 3.16 µM, first compound 0.03 µM) 66.3% | viability, T/C (second compound 3.16 µM, first compound 0.0949 µM) 41.9% | viability, T/C (second compound 3.16 µM, first compound 0.3 µM) 17% | viability, T/C (second compound 10 µM, first compound 0.000949 µM) 119% | viability, T/C (second compound 10 µM, first compound 0.003 µM) 121% | viability, T/C (second compound 10 µM, first compound 0.00949 µM) 111% | viability, T/C (second compound 10 µM, first compound 0.03 µM) 85.2% | viability, T/C (second compound 10 µM, first compound 0.0949 µM) 34.5%
0.199 µM: IC50 (second compound 0.1 µM)
active: viability, T/C (second compound 10 µM, first compound 0.3 µM) 8.64%

NC1CCC(NC2CC2c2ccccc2)CC1 (stereo not given) + Cc1c(S(C)(=O)=O)c(-c2cc(F)cc(N3CCN(c4ccc(NS(=O)(=O)c5ccc(NC(CCN6CCC(C(=O)OCCCP(=O)(O)O)CC6)CSc6ccccc6)c(S(=O)(=O)C(F)(F)F)c5)cc4)CC3)c2)c(-c2ccc(Cl)cc2)n1C(C)C
inactive: viability, T/C [31] 86% | viability, T/C [32] 103% | viability, T/C [1] 89.5% | viability, T/C [2] 94.1% | viability, T/C [3] 103% | viability, T/C [4] 92.3% | viability, T/C [33] 87.9% | viability, T/C [34] 95.6% | viability, T/C [7] 85% | viability, T/C [8] 81.9% | viability, T/C [9] 90.3% | viability, T/C [10] 93.1% | viability, T/C [35] 94.7% | viability, T/C [36] 94.2% | viability, T/C [13] 90.7% | viability, T/C [14] 81% | viability, T/C [15] 92.4% | viability, T/C [16] 86.3% | viability, T/C [37] 94.9% | viability, T/C [38] 95.5% | viability, T/C [19] 83.7% | viability, T/C [20] 76% | viability, T/C [21] 93.2% | viability, T/C [22] 87.8% | viability, T/C [39] 115% | viability, T/C [40] 110% | viability, T/C [25] 120% | viability, T/C [26] 107% | viability, T/C [27] 104% | viability, T/C [28] 112%
> 0.1 µM: IC50 (second compound 0.1 µM) | IC50 (second compound 0.316 µM) | IC50 (second compound 1 µM) | IC50 (second compound 3.16 µM) | IC50 (second compound 10 µM)

O=C(c1ccc(F)c(F)c1Nc1ccc(I)cc1F)N1CC(O)([C@@H]2CCCCN2)C1 + Cc1c(S(C)(=O)=O)c(-c2cc(F)cc(N3CCN(c4ccc(NS(=O)(=O)c5ccc(NC(CCN6CCC(C(=O)OCCCP(=O)(O)O)CC6)CSc6ccccc6)c(S(=O)(=O)C(F)(F)F)c5)cc4)CC3)c2)c(-c2ccc(Cl)cc2)n1C(C)C
active: viability, T/C [18] 4.46% | viability, T/C [24] 1.8% | viability, T/C [30] 2.47%
0.0757 µM: IC50 (second compound 10 µM)
inactive: viability, T/C [1] 104% | viability, T/C [2] 102% | viability, T/C [3] 71.8% | viability, T/C [4] 54.8% | viability, T/C [5] 41.9% | viability, T/C [6] 17.6% | viability, T/C [7] 93.7% | viability, T/C [8] 97.3% | viability, T/C [9] 66.7% | viability, T/C [10] 42.1% | viability, T/C [11] 32.2% | viability, T/C [12] 9.34% | viability, T/C [13] 90.7% | viability, T/C [14] 95% | viability, T/C [15] 74.5% | viability, T/C [16] 38.3% | viability, T/C [17] 26.9% | viability, T/C [19] 81.2% | viability, T/C [20] 90.4% | viability, T/C [21] 68.1% | viability, T/C [22] 31.6% | viability, T/C [23] 18.6% | viability, T/C [25] 115% | viability, T/C [26] 112% | viability, T/C [27] 78.8% | viability, T/C [28] 41.1% | viability, T/C [29] 12.6%
0.0785 µM: IC50 (second compound 1 µM)
0.059 µM: IC50 (second compound 3.16 µM)
0.0826 µM: IC50 (second compound 0.316 µM)
0.15 µM: IC50 (second compound 0.1 µM)
